Experimental data from patent US12139520B2 (priority 2020, dated 2024).
Bridge positions count the residues as written; N and C are the ends. Square brackets hold non-standard residues; d marks the D form. Peptide text beside a SMILES is read from it. Hyp = O=C(O)[C@@H]1C[C@@H](O)CN1; Cit = NC(=O)NCCC[C@H](N)C(=O)O

How the values were obtained:
[1] = biological target: hAM1 receptor (Homo sapiens, UniProt O60895+Q16602); test: cAMP assay for in vitro receptor activation, hAM1-R; format: cell-based; conditions: cAMP assay, hAM1 receptor; read-out: hAM1R EC50
Sequence of hAM1 receptor (Q16602 23-461): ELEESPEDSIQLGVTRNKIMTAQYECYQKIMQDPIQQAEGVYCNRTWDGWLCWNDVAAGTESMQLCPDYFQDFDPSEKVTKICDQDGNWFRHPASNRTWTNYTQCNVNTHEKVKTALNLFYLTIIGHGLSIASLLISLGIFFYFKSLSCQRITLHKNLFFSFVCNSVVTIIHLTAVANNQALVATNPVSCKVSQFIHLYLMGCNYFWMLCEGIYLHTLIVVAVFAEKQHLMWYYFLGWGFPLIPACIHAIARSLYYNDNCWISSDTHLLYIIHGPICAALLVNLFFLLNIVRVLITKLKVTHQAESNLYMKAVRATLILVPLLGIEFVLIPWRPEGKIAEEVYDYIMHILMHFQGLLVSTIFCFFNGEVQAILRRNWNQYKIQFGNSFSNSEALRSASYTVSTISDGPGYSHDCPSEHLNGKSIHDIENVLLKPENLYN
Sequence of hAM1 receptor (O60895 43-175 partner): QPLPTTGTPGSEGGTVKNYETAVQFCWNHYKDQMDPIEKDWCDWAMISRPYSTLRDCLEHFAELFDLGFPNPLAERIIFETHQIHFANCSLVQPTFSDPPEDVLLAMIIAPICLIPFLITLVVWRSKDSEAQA
Procedure, shortened: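 Receptor activation, read as cAMP, was assessed in thawed cells of a monoclonal hAM1-overexpressing stable line, plated at 8000 cells/well in DPBS supplemented with 0.05% casein and 0.5 mM IBMX.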

[2] = Physical stability of peptide analogues (Thioflavin T fibrillation); format: physicochemical; conditions: maximum ThT signal normalized between hAMY maximum and buffer background; 40° C., shaking, four days; pH 7 per table title
Procedure, shortened: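 Samples are stressed at 40 °C for four days, being shaken at 700 rpm before each 10-min fluorescence reading of 4 μM Thioflavin T. Buffers were pH 4 acetate or pH 7 phosphate. Reported values are smoothed maximum ThT signals as a percentage of the hAMY-to-background range.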

Compound | EC50 [1] [µM] | Max ThT signal (%) [2] [%]
CC[C@H](C)[C@H](NC(=O)[C@H](CCCCN)NC(=O)[C@@H](NC(=O)[C@H](CCCNC(=N)N)NC(=O)[C@@H]1CCCN1C(=O)[C@H](C)NC(=O)[C@@H](NC(=O)[C@H](CC(N)=O)NC(=O)[C@H](CC(=O)O)NC(=O)[C@H](CCCCN)NC(=O)[C@H](CC(=O)O)NC(=O)[C@H](CCCCN)NC(=O)[C@H](CC(=O)O)NC(=O)[C@@H](NC(=O)[C@H](Cc1ccccc1)NC(=O)[C@H](CCC(N)=O)NC(=O)[C@H](Cc1ccc(O)cc1)NC(=O)[C@@H](NC(=O)[C@H](CCC(N)=O)NC(=O)[C@H](Cc1c[nH]cn1)NC(=O)[C@H](C)NC(=O)[C@H](CC(C)C)NC(=O)[C@H](CCCNC(N)=O)NC(=O)[C@H](CCC(N)=O)NC(=O)[C@@H](NC(=O)[C@@H](NC(=O)[C@@H]1CSSC[C@H](NC(=O)CN)C(=O)N[C@@H](CCCNC(=N)N)C(=O)N[C@@H]([C@@H](C)O)C(=O)NCC(=O)N[C@@H]([C@@H](C)O)C(=O)N1)[C@@H](C)O)C(C)C)[C@@H](C)CC)[C@@H](C)O)C(C)C)[C@@H](C)O)C(=O)NCC(=O)N1CCC[C@H]1C(=O)N[C@@H](CC(N)=O)C(=O)NCC(=O)N1C[C@H](O)C[C@H]1C(N)=O [compound 277] (H-GCRTGTCTVQ[Cit]LAHQIYQFTDKDKDNVAPRTKIGPNG[Hyp]-NH2; disulfide 2-7; N-terminus assumed) | > 5 | 21.600
CC[C@H](C)[C@H](NC(=O)[C@H](CCCCN)NC(=O)[C@@H](NC(=O)[C@H](CCCNC(=N)N)NC(=O)[C@@H]1CCCN1C(=O)[C@H](C)NC(=O)[C@@H](NC(=O)[C@H](CC(N)=O)NC(=O)[C@H](CC(=O)O)NC(=O)[C@H](CCCCN)NC(=O)[C@H](CC(=O)O)NC(=O)[C@H](CCCCN)NC(=O)[C@H](CC(=O)O)NC(=O)[C@@H](NC(=O)[C@H](Cc1ccccc1)NC(=O)[C@H](CCC(N)=O)NC(=O)[C@H](Cc1ccc(O)cc1)NC(=O)[C@@H](NC(=O)[C@H](CCC(N)=O)NC(=O)[C@H](Cc1c[nH]cn1)NC(=O)[C@H](C)NC(=O)[C@H](CC(C)C)NC(=O)[C@H](CCCNC(N)=O)NC(=O)[C@H](CCC(N)=O)NC(=O)[C@@H](NC(=O)[C@@H](NC(=O)[C@@H]1CSSC[C@H](NC(=O)CN)C(=O)N[C@@H](CCCNC(=N)N)C(=O)N[C@@H]([C@@H](C)O)C(=O)NCC(=O)N[C@@H]([C@@H](C)O)C(=O)N1)[C@@H](C)O)C(C)C)[C@@H](C)CC)[C@@H](C)O)C(C)C)[C@@H](C)O)C(=O)NCC(=O)N1CCC[C@H]1C(=O)N[C@@H](CCC(N)=O)C(=O)NCC(=O)N1C[C@H](O)C[C@H]1C(N)=O [compound 301] (H-GCRTGTCTVQ[Cit]LAHQIYQFTDKDKDNVAPRTKIGPQG[Hyp]-NH2; disulfide 2-7; N-terminus assumed) | > 5 | 16.950
CC[C@H](C)[C@H](NC(=O)[C@H](CCC(N)=O)NC(=O)[C@H](Cc1c[nH]cn1)NC(=O)[C@H](C)NC(=O)[C@H](CC(C)C)NC(=O)[C@H](CCCNC(=N)N)NC(=O)[C@H](CCC(N)=O)NC(=O)[C@@H](NC(=O)[C@@H](NC(=O)[C@@H]1CSSC[C@H](NC(=O)CN)C(=O)N[C@@H](CCCNC(=N)N)C(=O)N[C@@H]([C@@H](C)O)C(=O)NCC(=O)N[C@@H]([C@@H](C)O)C(=O)N1)[C@@H](C)O)C(C)C)C(=O)N[C@@H](Cc1ccc(O)cc1)C(=O)N[C@@H](CCC(N)=O)C(=O)N[C@@H](Cc1ccccc1)C(=O)N[C@H](C(=O)N[C@@H](CC(=O)O)C(=O)N[C@@H](CCCCN)C(=O)N[C@@H](Cc1ccccc1)C(=O)N[C@@H](CCCCN)C(=O)N[C@@H](CC(=O)O)C(=O)N[C@@H](CC(N)=O)C(=O)N[C@H](C(=O)N[C@@H](C)C(=O)N1CCC[C@H]1C(=O)N[C@@H](CCCNC(=N)N)C(=O)N[C@@H](CO)C(=O)N[C@@H](CCCCN)C(=O)N[C@H](C(=O)N[C@@H](CO)C(=O)N1CCC[C@H]1C(=O)N[C@@H](CCC(N)=O)C(=O)N[C@@H](C)C(=O)N1C[C@H](O)C[C@H]1C(N)=O)[C@@H](C)CC)C(C)C)[C@@H](C)O [compound 218] (H-GCRTGTCTVQRLAHQIYQFTDKFKDNVAPRSKISPQA[Hyp]-NH2; disulfide 2-7; N-terminus assumed) | > 5 | 4.500
CC[C@H](C)[C@H](NC(=O)[C@H](CCCCN)NC(=O)[C@H](CO)NC(=O)[C@H](CCCNC(=N)N)NC(=O)[C@@H]1CCCN1C(=O)[C@H](C)NC(=O)[C@@H](NC(=O)[C@H](CC(N)=O)NC(=O)[C@H](CC(=O)O)NC(=O)[C@H](CCCCN)NC(=O)[C@H](CC(=O)O)NC(=O)[C@H](CCCCN)NC(=O)[C@H](CC(=O)O)NC(=O)[C@@H](NC(=O)[C@H](Cc1ccccc1)NC(=O)[C@H](CCC(N)=O)NC(=O)[C@H](Cc1ccc(O)cc1)NC(=O)[C@@H](NC(=O)[C@H](CCC(N)=O)NC(=O)[C@H](Cc1c[nH]cn1)NC(=O)[C@H](C)NC(=O)[C@H](CC(C)C)NC(=O)[C@H](Cc1c[nH]c2ccccc12)NC(=O)[C@H](CCC(N)=O)NC(=O)[C@@H](NC(=O)[C@@H](NC(=O)[C@@H]1CSSC[C@H](NC(=O)CN)C(=O)N[C@@H](CCCNC(=N)N)C(=O)N[C@@H]([C@@H](C)O)C(=O)NCC(=O)N[C@@H]([C@@H](C)O)C(=O)N1)[C@@H](C)O)C(C)C)[C@@H](C)CC)[C@@H](C)O)C(C)C)C(=O)NCC(=O)N1CCC[C@H]1C(=O)N[C@@H](CC(N)=O)C(=O)NCC(=O)N1C[C@H](O)C[C@H]1C(N)=O [compound 355] (H-GCRTGTCTVQWLAHQIYQFTDKDKDNVAPRSKIGPNG[Hyp]-NH2; disulfide 2-7; N-terminus assumed) | > 5 | 25.350

The next lines start with the values.

EC50 [1] [µM] | Max ThT signal (%) [2] [%] | Compound
> 5 | 19.450 | CC[C@H](C)[C@@H]1NC(=O)[C@H](CCCNC(=N)N)NC(=O)[C@@H](NC(=O)CN)CSSC[C@@H](C(=O)N[C@H](C(=O)N[C@H](C(=O)N[C@@H](CCC(N)=O)C(=O)N[C@@H](CCCNC(N)=O)C(=O)N[C@@H](CC(C)C)C(=O)N[C@@H](C)C(=O)N[C@@H](Cc2c[nH]cn2)C(=O)N[C@@H](CCC(N)=O)C(=O)N[C@H](C(=O)N[C@@H](Cc2ccc(O)cc2)C(=O)N[C@@H](CCC(N)=O)C(=O)N[C@@H](Cc2ccccc2)C(=O)N[C@H](C(=O)N[C@@H](CC(=O)O)C(=O)N[C@@H](CCCCN)C(=O)N[C@@H](Cc2ccccc2)C(=O)N[C@@H](CCCCN)C(=O)N[C@@H](CC(=O)O)C(=O)N[C@@H](CC(N)=O)C(=O)N[C@H](C(=O)N[C@@H](C)C(=O)N2CCC[C@H]2C(=O)N[C@@H](CCCNC(=N)N)C(=O)N[C@@H](CO)C(=O)N[C@@H](CCCCN)C(=O)N[C@H](C(=O)N[C@@H](CO)C(=O)N2CCC[C@H]2C(=O)N[C@@H](CCC(N)=O)C(=O)N[C@H](C(=O)N2C[C@H](O)C[C@H]2C(N)=O)[C@@H](C)O)[C@@H](C)CC)C(C)C)[C@@H](C)O)[C@@H](C)CC)C(C)C)[C@@H](C)O)NC(=O)[C@H]([C@@H](C)O)NC(=O)CNC1=O [compound 295] (H-GCRIGTCTVQ[Cit]LAHQIYQFTDKFKDNVAPRSKISPQT[Hyp]-NH2; disulfide 2-7; N-terminus assumed)
> 5 | 19.600 | CC[C@H](C)[C@H](NC(=O)[C@H](CCC(N)=O)NC(=O)[C@H](Cc1c[nH]cn1)NC(=O)[C@H](C)NC(=O)[C@H](CC(C)C)NC(=O)[C@H](CCCNC(=N)N)NC(=O)[C@H](CCC(N)=O)NC(=O)[C@@H](NC(=O)[C@@H](NC(=O)[C@@H]1CSSC[C@H](NC(=O)CN)C(=O)N[C@@H](CCCNC(=N)N)C(=O)N[C@@H]([C@@H](C)O)C(=O)NCC(=O)N[C@@H]([C@@H](C)O)C(=O)N1)[C@@H](C)O)C(C)C)C(=O)N[C@@H](Cc1c[nH]cn1)C(=O)N[C@@H](CCC(N)=O)C(=O)N[C@@H](Cc1ccccc1)C(=O)N[C@H](C(=O)N[C@@H](CC(=O)O)C(=O)N[C@@H](CCCCN)C(=O)N[C@@H](CC(=O)O)C(=O)N[C@@H](CCCCN)C(=O)N[C@@H](CC(=O)O)C(=O)N[C@@H](CC(N)=O)C(=O)N[C@H](C(=O)N[C@@H](C)C(=O)N1CCC[C@H]1C(=O)N[C@@H](CCCNC(=N)N)C(=O)N[C@@H](CO)C(=O)N[C@@H](CCCCN)C(=O)N[C@H](C(=O)N[C@@H](CO)C(=O)N1CCC[C@H]1C(=O)N[C@@H](CCC(N)=O)C(=O)N[C@H](C(=O)N1C[C@H](O)C[C@H]1C(N)=O)[C@@H](C)O)[C@@H](C)CC)C(C)C)[C@@H](C)O [compound 228] (H-GCRTGTCTVQRLAHQIHQFTDKDKDNVAPRSKISPQT[Hyp]-NH2; disulfide 2-7; N-terminus assumed)
4.25 | 0.700 | CC[C@H](C)[C@H](NC(=O)[C@H](CCC(N)=O)NC(=O)[C@H](Cc1c[nH]cn1)NC(=O)[C@H](C)NC(=O)[C@H](CC(C)C)NC(=O)[C@H](CCCNC(=N)N)NC(=O)[C@H](CCC(N)=O)NC(=O)[C@@H](NC(=O)[C@@H](NC(=O)[C@@H]1CSSC[C@H](NC(=O)CN)C(=O)N[C@@H](CCCNC(=N)N)C(=O)N[C@@H]([C@@H](C)O)C(=O)NCC(=O)N[C@@H]([C@@H](C)O)C(=O)N1)[C@@H](C)O)C(C)C)C(=O)N[C@@H](Cc1ccc(O)cc1)C(=O)N[C@@H](CCC(N)=O)C(=O)N[C@@H](Cc1ccccc1)C(=O)N[C@H](C(=O)N[C@@H](CC(N)=O)C(=O)N[C@@H](CCCCN)C(=O)N[C@@H](CC(=O)O)C(=O)N[C@@H](CCCCN)C(=O)N[C@@H](CC(=O)O)C(=O)N[C@@H](CC(N)=O)C(=O)N[C@H](C(=O)N[C@@H](C)C(=O)N1CCC[C@H]1C(=O)N[C@@H](CCCNC(=N)N)C(=O)N[C@@H](CO)C(=O)N[C@@H](CCCCN)C(=O)N[C@H](C(=O)N[C@@H](CO)C(=O)N1CCC[C@H]1C(=O)N[C@@H](CCC(N)=O)C(=O)N[C@@H](Cc1c[nH]cn1)C(=O)N1C[C@H](O)C[C@H]1C(N)=O)[C@@H](C)CC)C(C)C)[C@@H](C)O [compound 219] (H-GCRTGTCTVQRLAHQIYQFTNKDKDNVAPRSKISPQH[Hyp]-NH2; disulfide 2-7; N-terminus assumed)
